In patent US20190071670A1, “Methods Of Treatment For Alpha-1 Antitrypsin Deficiency” (Arrowhead Pharmaceuticals, Inc., priority 2016, published 2019):
Like-named read-outs stand apart in the source and are kept apart here.

System: AAT
Settings: cynomolgus macaque
Experimental: MLP delivery polymer and Duplex Pair SEQ ID NO: 5/6 (AAT RNAi agent) were made and combined in a pharmaceutically acceptable buffer. On day 1, cynomolgus macaque (Macaca fascicularis) primates (male and female, 3 to 9 kg) were co-injected with MLP delivery polymer and Duplex Pair SEQ ID NO: 5/6 at different dose combinations. The dose combinations injected were: 2.0 mg/kg MLP delivery polymer+4.0 AAT RNAi agent (n=3), 3 mg/kg MLP delivery polymer+1.5 mg/kg AAT RNAi agent (n=2), 3.0 mg/kg MLP delivery polymer+3.0 mg/kg AAT RNAi agent (n=3), 3.0 mg/kg MLP delivery polymer+6.0 mg/kg AAT RNAi agent (n=2), 6.0 mg/kg MLP delivery polymer+12 mg/kg AAT RNAi trigger (n=3) ([…] conversion factor used to determine RNAi agent concentration) and 12 mg/kg MLP delivery polymer+6.0 mg/kg AAT RNAi agent (n=12). For each injection the MLP delivery polymer+AAT RNAi agent (2 ml/kg) was injected into the saphenous vein using a 22 to 25 gauge intravenous catheter. At the indicated time points, blood samples were drawn and analyzed for AAT and toxicity markers. Blood was collected from the femoral vein and primates were fasted overnight before all blood collections. Blood tests for blood urea nitrogen (BUN), alanine transaminase (ALT), aspartate aminotransferase (AST), and creatinine were performed on an automated chemistry analyzer at Meriter laboratories or BASi. AAT levels were determined on a Cobas Integra 400 (Roche Diagnostics) according to the manufacturer's recommendations.
Cynomolgus macaque primates were given five doses of AAT RNAi trigger+MLP delivery polymer at six week intervals. Each dose contained MLP delivery polymer and Duplex Pair SEQ ID NO: 5/6 (AAT RNAi agent) at a 1:2 weight to weight ratio of the MLP to RNAi agent. The first injection was on day 1. The dose combinations injected were: 2.0 mg/kg MLP delivery polymer+4.0 AAT RNAi agent (n=2) and 3 mg/kg MLP delivery polymer+6 mg/kg AAT RNAi agent (n=2). Blood was collected at intervals throughout the study and AAT levels were measured from the serum as described.

Duplex Pair SEQ ID NO: 5/6: double-stranded AAT RNAi agent: modified antisense strand SEQ ID NO: 5 annealed to Chol-TEG sense strand SEQ ID NO: 6 (antisense TGGAACUUGGUGAUGAUAUTT; sense UAUAUAUCAUCACCAAGUUCCAT; Chol-TEG on sense strand; chemical modifications; antisense strand of dsRNA; modified_base 7 /mod_base = “2′-3′ seco corresponding nucleotide”; modified_base 2,4,6,8,10,12,14,16,18 /mod_base = “2′-deoxy-2′-fluoro corresponding nucleoside”; modified_base 3,5,9,11,13,15,17,19 /mod_base = “2′-O-methyl corresponding nucleoside”; modified_base 21 /mod_base = “5′-phosphorothioate corresponding nucleotide”; sense strand of dsRNA; modified_base 2 /mod_base = “2′-hydroxy corresponding nucleoside”; modified_base 4,6,8,10,12,14,16,18,20,22 /mod_base = “2′-deoxy-2′-fluoro corresponding nucleoside”; …)
Serum AAT levels measured six weeks after each treatment (2.0 mg/kg MLP delivery polymer + 4.0 AAT RNAi agent, five doses at six week intervals): rebounded less with each additional treatment | Serum AAT reduced (2.0 mg/kg MLP delivery polymer + 4.0 AAT RNAi agent, six week intervals, following the fourth treatment): 85% | Serum AAT reduced (2.0 mg/kg MLP delivery polymer + 4.0 AAT RNAi agent, following the first treatment): 80% | knockdown of AAT (all dose combinations with MLP delivery polymer): Significant knockdown | Percent AAT Knockdown in NHPs (co-injection MLP 2.0 mg/kg + SEQ ID 5/6 4.0 mg/kg on day 1, Day 2): 11% | Percent AAT Knockdown in NHPs (co-injection MLP 2.0 mg/kg + SEQ ID 5/6 4.0 mg/kg on day 1, Day 3): 27% | Percent AAT Knockdown in NHPs (co-injection MLP 2.0 mg/kg + SEQ ID 5/6 4.0 mg/kg on day 1, Day 8): 63% | Percent AAT Knockdown in NHPs (co-injection MLP 2.0 mg/kg + SEQ ID 5/6 4.0 mg/kg on day 1, Day 11): 73% | Percent AAT Knockdown in NHPs (co-injection MLP 2.0 mg/kg + SEQ ID 5/6 4.0 mg/kg on day 1, Day 15): 81% | Percent AAT Knockdown in NHPs (co-injection MLP 2.0 mg/kg + SEQ ID 5/6 4.0 mg/kg on day 1, Day 22): 85% | Percent AAT Knockdown in NHPs (co-injection MLP 2.0 mg/kg + SEQ ID 5/6 4.0 mg/kg on day 1, Day 29): 80% | Percent AAT Knockdown in NHPs (co-injection MLP 2.0 mg/kg + SEQ ID 5/6 4.0 mg/kg on day 1, Pretest): 0% | Percent AAT Knockdown in NHPs (co-injection MLP 3.0 mg/kg + SEQ ID 5/6 1.5 mg/kg on day 1, Day 2): 16% | Percent AAT Knockdown in NHPs (co-injection MLP 3.0 mg/kg + SEQ ID 5/6 1.5 mg/kg on day 1, Day 3): 30% | Percent AAT Knockdown in NHPs (co-injection MLP 3.0 mg/kg + SEQ ID 5/6 1.5 mg/kg on day 1, Day 8): 59% | Percent AAT Knockdown in NHPs (co-injection MLP 3.0 mg/kg + SEQ ID 5/6 1.5 mg/kg on day 1, Day 11): 70% | Percent AAT Knockdown in NHPs (co-injection MLP 3.0 mg/kg + SEQ ID 5/6 1.5 mg/kg on day 1, Day 15): 74% | Percent AAT Knockdown in NHPs (co-injection MLP 3.0 mg/kg + SEQ ID 5/6 1.5 mg/kg on day 1, Day 22): 76% | Percent AAT Knockdown in NHPs (co-injection MLP 3.0 mg/kg + SEQ ID 5/6 1.5 mg/kg on day 1, Day 29): 74% | Percent AAT Knockdown in NHPs (co-injection MLP 3.0 mg/kg + SEQ ID 5/6 1.5 mg/kg on day 1, Day 36): 70% | Percent AAT Knockdown in NHPs (co-injection MLP 3.0 mg/kg + SEQ ID 5/6 1.5 mg/kg on day 1, Day 43): 63% | Percent AAT Knockdown in NHPs (co-injection MLP 3.0 mg/kg + SEQ ID 5/6 1.5 mg/kg on day 1, Day 50): 51% | Percent AAT Knockdown in NHPs (co-injection MLP 3.0 mg/kg + SEQ ID 5/6 1.5 mg/kg on day 1, Pretest): 0% | Percent AAT Knockdown in NHPs (co-injection MLP 3.0 mg/kg + SEQ ID 5/6 3.0 mg/kg on day 1, Day 2): 15% | Percent AAT Knockdown in NHPs (co-injection MLP 3.0 mg/kg + SEQ ID 5/6 3.0 mg/kg on day 1, Day 3): 29% | Percent AAT Knockdown in NHPs (co-injection MLP 3.0 mg/kg + SEQ ID 5/6 3.0 mg/kg on day 1, Day 8): 63% | Percent AAT Knockdown in NHPs (co-injection MLP 3.0 mg/kg + SEQ ID 5/6 3.0 mg/kg on day 1, Day 11): 74% | Percent AAT Knockdown in NHPs (co-injection MLP 3.0 mg/kg + SEQ ID 5/6 3.0 mg/kg on day 1, Day 15): 82% | Percent AAT Knockdown in NHPs (co-injection MLP 3.0 mg/kg + SEQ ID 5/6 3.0 mg/kg on day 1, Day 22): 88% | Percent AAT Knockdown in NHPs (co-injection MLP 3.0 mg/kg + SEQ ID 5/6 3.0 mg/kg on day 1, Day 29): 85% | Percent AAT Knockdown in NHPs (co-injection MLP 3.0 mg/kg + SEQ ID 5/6 3.0 mg/kg on day 1, Pretest): 0% | Percent AAT Knockdown in NHPs (co-injection MLP 3.0 mg/kg + SEQ ID 5/6 6.0 mg/kg on day 1, Day 2): 10% | Percent AAT Knockdown in NHPs (co-injection MLP 3.0 mg/kg + SEQ ID 5/6 6.0 mg/kg on day 1, Day 3): 25% | Percent AAT Knockdown in NHPs (co-injection MLP 3.0 mg/kg + SEQ ID 5/6 6.0 mg/kg on day 1, Day 8): 63% | Percent AAT Knockdown in NHPs (co-injection MLP 3.0 mg/kg + SEQ ID 5/6 6.0 mg/kg on day 1, Day 11): 74% | Percent AAT Knockdown in NHPs (co-injection MLP 3.0 mg/kg + SEQ ID 5/6 6.0 mg/kg on day 1, Day 15): 82% | Percent AAT Knockdown in NHPs (co-injection MLP 3.0 mg/kg + SEQ ID 5/6 6.0 mg/kg on day 1, Pretest): 0% | Percent AAT Knockdown in NHPs (co-injection MLP 6.0 mg/kg + SEQ ID 5/6 12.0 mg/kg on day 1, Day 2): 18% | Percent AAT Knockdown in NHPs (co-injection MLP 6.0 mg/kg + SEQ ID 5/6 12.0 mg/kg on day 1, Day 3): 30% | Percent AAT Knockdown in NHPs (co-injection MLP 6.0 mg/kg + SEQ ID 5/6 12.0 mg/kg on day 1, Day 8): 61% | Percent AAT Knockdown in NHPs (co-injection MLP 6.0 mg/kg + SEQ ID 5/6 12.0 mg/kg on day 1, Pretest): 0% | Percent AAT Knockdown in NHPs (co-injection MLP 12.0 mg/kg + SEQ ID 5/6 6.0 mg/kg on day 1, Day 2): 3% | Percent AAT Knockdown in NHPs (co-injection MLP 12.0 mg/kg + SEQ ID 5/6 6.0 mg/kg on day 1, Day 3): 19% | Percent AAT Knockdown in NHPs (co-injection MLP 12.0 mg/kg + SEQ ID 5/6 6.0 mg/kg on day 1, Day 8): 60% | Percent AAT Knockdown in NHPs (co-injection MLP 12.0 mg/kg + SEQ ID 5/6 6.0 mg/kg on day 1, Day 11): 84% | Percent AAT Knockdown in NHPs (co-injection MLP 12.0 mg/kg + SEQ ID 5/6 6.0 mg/kg on day 1, Day 15): 88% | Percent AAT Knockdown in NHPs (co-injection MLP 12.0 mg/kg + SEQ ID 5/6 6.0 mg/kg on day 1, Day 26): 91% | Percent AAT Knockdown in NHPs (co-injection MLP 12.0 mg/kg + SEQ ID 5/6 6.0 mg/kg on day 1, Day 33): 86% | Percent AAT Knockdown in NHPs (co-injection MLP 12.0 mg/kg + SEQ ID 5/6 6.0 mg/kg on day 1, Day 47): 76% | Percent AAT Knockdown in NHPs (co-injection MLP 12.0 mg/kg + SEQ ID 5/6 6.0 mg/kg on day 1, Pretest): 0% | serum AAT levels reduced (repeat dosing at six week intervals, 3 mg/kg MLP delivery polymer + 6 mg/kg, from two to thirty weeks after the first treatment): 80-90%
